Assay results reported in patent US7358250B2, “Pyrrolo[2,3-d]pyrimidines that modulate ACK1 activity” (Amgen Inc., priority 2004, dated 2008).

Legend:
[1] = target: T1, ACK1 (Homo sapiens, UniProt Q07912); assay: ACK1 Enzymatic Assay; format: biochemical; conditions: 5 μM ATP, ELISA phosphotyrosine readout
T1 construct: a fusion of an N-terminal (His)6 Tag with amino acids 117 to 489 of ACK1; (His)6 (N); made in house; host or cells: baculovirus infected Hi-5 insect cells
Method: IC50 values of inventive compounds may be assessed as follows. […] The substrate of for the reaction is ACK1 itself (autophosphorylation) and poly-Glutamic acid-Tyrosine (PGT (4:1), Sigma catalog #PO275). The PGT is coated to Nunc 96 well plates at 80 μg/mL overnight at 4° C. […] Test compounds are added in 10 μL DMSO, and the reaction is started by addition of 10 μL kinase in assay buffer. The reaction proceeds 2 h at room temperature. Next the plates are washed four times, and the level of tyrosine phosphorylation in a given well is quantified by standard ELISA assay utilizing a phosphotyrosine antibody (PY20, Pierce).

[2] = tested on: C8 cells; assay: ACK1 Cell Based Assay, test (C8) cell line; conditions: 0.125% FCS, 20 to 24 h; for IC50: cell viability (Cytotox One kit)
Method: (§1) The ACK1 cell based assay is designed to find inhibitors of ACK1 kinase activity which would be prime candidates for the development of anticancer drugs. […] This dependency was confirmed utilizing ACK1 specific siRNAs.
(§2) For this assay, test (C8) and control (HeLa) cell lines are seeded in 96 well tissue culture plates (BD Falcon) at a density of 2 to 4×10^4 in DMEM/F12 (C8) or DMEM (HeLa) with 0.125% FCS in the presence of ACK1 inhibitors (final DMSO concentration is 0.5%, all tissue culture media are from Cellgro). After 20 to 24 h incubation at 37° C. and 5% CO2, cell viability is determined using the Cytotox One kit (Promega) according to the manufacturer's instructions.

[3] = tested on: HeLa cells; assay: ACK1 Cell Based Assay, control (HeLa) cell line; conditions: 0.125% FCS, 20 to 24 h
Method: as §1, §2

[4] = target: T2, LCK (Homo sapiens, UniProt P06239); assay: LCK-Homogeneous Time Resolved Fluorescent (HTRF) Kinase Assay; format: biochemical; conditions: LCK KD GST (225-509)
T2 construct: 15 μL of LCK KD GST (225-509) for a final volume of 40 μL; GST
T2 sequence (P06239 225-509): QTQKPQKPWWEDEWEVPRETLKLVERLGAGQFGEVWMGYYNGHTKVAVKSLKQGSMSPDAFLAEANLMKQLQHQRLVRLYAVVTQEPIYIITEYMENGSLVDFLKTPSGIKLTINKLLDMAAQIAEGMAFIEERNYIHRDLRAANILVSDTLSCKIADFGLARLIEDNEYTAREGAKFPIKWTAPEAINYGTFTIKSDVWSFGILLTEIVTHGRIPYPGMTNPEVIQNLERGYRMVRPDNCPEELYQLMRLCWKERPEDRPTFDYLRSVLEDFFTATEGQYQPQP
Method: The LCK HTRF assay begins with LCK in the presence of ATP phosphorylating the biotinylated peptide Gastrin. The reaction incubates for 90 min. To quench the assay detection reagents are added which both stop the reaction by diluting out the enzyme and chelating the metals due to the presence of EDTA. Once the detection reagents are added the assay incubates for 30 min to allow for equilibration of the detection reagents.
The final concentration of gastrin is 1.2 μM. The final concentration of ATP is 0.5 μM (Km app=[…]) and the final concentration of LCK is […]. Buffer conditions are as follows: 50 mM HEPES pH 7.5, 50 mM NaCl, 20 mM MgCl, 5 mM MnCl, 2 mM DTT, 0.05% BSA.
The assay is quenched and stopped with 160 μL of detection reagent. Detection reagents are as follows: Buffer made of 50 mM Tris, pH 7.5, 100 mM NaCl, 3 mM EDTA, 0.05% BSA, 0.1% Tween20. Added to this buffer prior to reading is Steptavidin allophycocyanin (SA-APC) at a final conc in the assay of 0.0004 mg/mL, and europilated anti-phosphotyrosine Ab (Eu-anti-PY) at a final conc of 0.025 nM.
The assay plate is read in either a Discovery or a RubyStar. The eu-anti-PY is excited at 320 nm and emits at 615 nm to excite the SA-APC which in turn emits at 655 nm. The ratio of SA-APC at 655 nm (excited due to close proximity to the Eu-anti-PY because of phosphorylation of the peptide) to free Eu-anti-PY at 615 nm will give substrate phosphorylation.

T1 sequence (Q07912 117-489): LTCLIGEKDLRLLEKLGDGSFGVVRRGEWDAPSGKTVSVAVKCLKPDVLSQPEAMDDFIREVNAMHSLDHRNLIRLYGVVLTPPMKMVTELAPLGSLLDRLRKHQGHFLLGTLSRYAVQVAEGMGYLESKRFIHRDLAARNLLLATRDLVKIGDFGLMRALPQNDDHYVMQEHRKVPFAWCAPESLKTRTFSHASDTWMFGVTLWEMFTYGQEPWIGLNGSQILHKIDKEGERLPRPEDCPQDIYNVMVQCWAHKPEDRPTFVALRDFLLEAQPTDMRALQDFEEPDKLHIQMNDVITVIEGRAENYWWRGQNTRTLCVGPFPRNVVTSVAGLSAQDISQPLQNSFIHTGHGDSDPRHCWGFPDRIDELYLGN

Compound	Ki [1] [nM]	Ki [4] [nM]	cytotoxicity to C8 cells [2]	IC50 [2] [nM]	cytotoxic effect on HeLa cells [3]
CN(C)CCOc1ccc(-c2[nH]c3ncnc(NC[C@@H]4CCCO4)c3c2-c2ccccc2)cc1 [Example 20, {6-[4-(2-Dimethylamino-ethoxy)-phenyl]-5-phenyl-7H-pyrrolo[2,3-d]pyrimidin-4-yl}-(tetrahydro-furan-2-ylmethyl)-amine]	< 10	< 10	cytotoxic	10 to 100	no cytotoxic effect
O=C(c1ccc(-c2[nH]c3ncnc(NCC4CCCO4)c3c2-c2ccccc2)cc1)N1CCOCC1 (centres unmarked) [Example 28, Morpholin-4-yl-(4-{5-phenyl-4-[(tetrahydrofuran-2-ylmethyl)-amino]-7H-pyrrolo[2,3-d]pyrimidin-6-yl}-phenyl)-methanone]	< 10	> 100		10 to 100	
O=S(=O)(NCCN1CCOCC1)c1ccc(-c2[nH]c3ncnc(NCC4CCCO4)c3c2-c2ccccc2)cc1 (centres unmarked) [Example 11, N-(2-Morpholin-4-yl-ethyl)-4-{5-phenyl-4-[(tetrahydrofuran-2-ylmethyl)-amino]-7H-pyrrolo[2,3-d]pyrimidin-6-yl}-benzenesulfonamide]	< 10	< 10		10 to 100	
CN(C)S(=O)(=O)c1ccc(-c2[nH]c3ncnc(NC[C@@H]4CCCO4)c3c2-c2ccccc2)cc1 [Example 5, N,N-Dimethyl-4-{5-phenyl-4-[(tetrahydro-furan-2-ylmethyl)-amino]-7H-pyrrolo[2,3-d]pyrimidin-6-yl}-benzenesulfonamide]	< 10	< 10		10 to 100	

Further lines, with some results ahead:

Ki [1] [nM]	Ki [4] [nM]	Compound	cytotoxicity to C8 cells [2]	IC50 [2] [nM]	cytotoxic effect on HeLa cells [3]
< 10	10 to 100	CCOC(=O)CN(CC(=O)OCC)S(=O)(=O)c1ccc(-c2[nH]c3ncnc(NCC4CCCO4)c3c2-c2ccccc2)cc1 (centres unmarked) [Example 14, [Ethoxycarbonylmethyl-(4-{5-phenyl-4-[(tetrahydrofuran-2-ylmethyl)-amino]-7H-pyrrolo[2,3-d]pyrimidin-6-yl}-benzenesulfonyl)-amino]-acetic acid ethyl ester]		> 100	
10 to 100	10 to 100	CN1CCCC1CCOc1ccc(-c2[nH]c3ncnc(NCC4CCCO4)c3c2-c2ccccc2)cc1 (centres unmarked) [Example 24, (6-{4-[2-(1-Methyl-pyrrolidin-2-yl)-ethoxy]-phenyl}-5-phenyl-7H-pyrrolo[2,3-d]pyrimidin-4-yl)-(tetrahydrofuran-2-ylmethyl)-amine]		> 100	
10 to 100	10 to 100	c1ccc(-c2[nH]c3ncnc(NCCN4CCOCC4)c3c2-c2ccccc2)cc1 [Example 1, (5,6-Diphenyl-7H-pyrrolo[2,3-d]pyrimidin-4-yl)-(2-morpholin-4-ylethyl)-amine]		> 100	
< 10	< 10	CCN(CC)S(=O)(=O)c1ccc(-c2[nH]c3ncnc(NCC4CCCO4)c3c2-c2ccccc2)cc1 (centres unmarked) [Example 7, N,N-Diethyl-4-{5-phenyl-4-[(tetrahydrofuran-2-ylmethyl)-amino]-7H-pyrrolo[2,3-d]pyrimidin-6-yl}-benzenesulfonamide]		> 100	
< 10	< 10	O=C(NCCN1CCOCC1)c1ccc(-c2[nH]c3ncnc(NCC4CCCO4)c3c2-c2ccccc2)cc1 (centres unmarked) [Example 31, N-(2-Morpholin-4-yl-ethyl)-4-{5-phenyl-4-[(tetrahydrofuran-2-ylmethyl)-amino]-7H-pyrrolo[2,3-d]pyrimidin-6-yl}-benzamide]		> 100	
